Results published in patent publication US12077503B2, “Substituted cyclic amides and their use as herbicides” (FMC CORPORATION, priority 2015, dated 2024).

Columns and labels:
Type in all cases: in vivo
[1] = tested on: ivy-leaved morning glory (Ipomoea hederacea); experiment: Test G Post-Emergence Protocol; conditions: Ipomoea, post-emergence, 312 h, read-out: Morningglory, Ivy-leaved damage rating; for pest or weed control at 15.625 g/ha: 15.625 g ai/ha, evaluated after 13 days (100=total damage to plant; 0=no damage to plant); for pest or weed control at 62.5 g/ha: 62.5 g ai/ha; for pest or weed control at 62.5 g/ha / pest or weed control at 250 g/ha: evaluated after 13 days, 100=total damage to plant, 0=no damage to plant; for pest or weed control at 250 g/ha: 250 g ai/ha
Outline: (§1)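 Damage was rated 13 days after treatment from 0 (none) to 100 (plant killed). Compound was applied as a spray at 15.625, 62.5 or 250 g/ha in 50:50 acetone/water containing 0.5% Tween 20, onto 8-day-old potted plants kept in a glasshouse (24/16 °C, 14 h light, 65% humidity).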

[2] = tested on: redroot pigweed (Amaranthus retroflexus); experiment: Test G Post-Emergence Protocol; conditions: Amaranthus retroflexus, post-emergence, 312 h, read-out: Pigweed, Redroot damage rating; for pest or weed control at 15.625 g/ha: 15.625 g ai/ha, evaluated after 13 days (100=total damage to plant; 0=no damage to plant); for pest or weed control at 62.5 g/ha: 62.5 g ai/ha; for pest or weed control at 62.5 g/ha / pest or weed control at 250 g/ha: evaluated after 13 days, 100=total damage to plant, 0=no damage to plant; for pest or weed control at 250 g/ha: 250 g ai/ha
Outline: as §1

[3] = tested on: giant foxtail (Setaria faberi); experiment: Test G Post-Emergence Protocol; conditions: Setaria faberi, post-emergence, 312 h, read-out: Foxtail, Giant damage rating; for pest or weed control at 15.625 g/ha: 15.625 g ai/ha, evaluated after 13 days (100=total damage to plant; 0=no damage to plant); for pest or weed control at 62.5 g/ha: 62.5 g ai/ha; for pest or weed control at 62.5 g/ha / pest or weed control at 250 g/ha: evaluated after 13 days, 100=total damage to plant, 0=no damage to plant; for pest or weed control at 250 g/ha: 250 g ai/ha
Outline: as §1

[4] = tested on: velvetleaf (Abutilon theophrasti); experiment: Test G Post-Emergence Protocol; conditions: Abutilon theophrasti, post-emergence, 312 h, read-out: Velvetleaf damage rating; for pest or weed control at 15.625 g/ha: 15.625 g ai/ha, evaluated after 13 days (100=total damage to plant; 0=no damage to plant); for pest or weed control at 62.5 g/ha: 62.5 g ai/ha; for pest or weed control at 62.5 g/ha / pest or weed control at 250 g/ha: evaluated after 13 days, 100=total damage to plant, 0=no damage to plant; for pest or weed control at 250 g/ha: 250 g ai/ha
Outline: as §1

[5] = tested on: barnyardgrass (Echinochloa crus-galli); experiment: Test G Post-Emergence Protocol; conditions: Echinochloa crus-galli, post-emergence, 312 h, read-out: Barnyardgrass damage rating; for pest or weed control at 15.625 g/ha: 15.625 g ai/ha, evaluated after 13 days (100=total damage to plant; 0=no damage to plant); for pest or weed control at 62.5 g/ha: 62.5 g ai/ha; for pest or weed control at 62.5 g/ha / pest or weed control at 250 g/ha: evaluated after 13 days, 100=total damage to plant, 0=no damage to plant; for pest or weed control at 250 g/ha: 250 g ai/ha
Outline: as §1

[6] = tested on: corn (Zea mays); experiment: Test G Post-Emergence Protocol; conditions: Zea mays, post-emergence, 312 h, read-out: Corn damage rating; for plant injury at 15.625 g/ha: 15.625 g ai/ha, evaluated after 13 days (100=total damage to plant; 0=no damage to plant); for plant injury at 62.5 g/ha: 62.5 g ai/ha; for plant injury at 62.5 g/ha / plant injury at 250 g/ha: evaluated after 13 days, 100=total damage to plant, 0=no damage to plant; for plant injury at 250 g/ha: 250 g ai/ha
Outline: as §1

[7] = tested on: ivy-leaved morning glory (Ipomoea hederacea); experiment: Test G Pre-Emergence Protocol; conditions: Ipomoea, pre-emergence, 312 h, evaluated after 13 days; for pest or weed control at 15.625 g/ha: 15.625 g ai/ha; for pest or weed control at 15.625 g/ha / pest or weed control at 250 g/ha: read-out: Morningglory, Ivy-leaved damage rating (100=total damage to plant; 0=no damage to plant); for pest or weed control at 62.5 g/ha: 62.5 g ai/ha, 100=total damage to plant, 0=no damage to plant, read-out: Morningglory, Ivy-leaved damage rating; for pest or weed control at 250 g/ha: 250 g ai/ha
Outline: (§2)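 One day after sowing, pots are treated with a spray of test compound formulated in acetone/water 50:50 plus 0.5% Tween 20, giving 15.625, 62.5 or 250 g/ha. Evaluation on a 0–100 damage scale follows 13 days of glasshouse growth.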

[8] = tested on: redroot pigweed (Amaranthus retroflexus); experiment: Test G Pre-Emergence Protocol; conditions: Amaranthus retroflexus, pre-emergence, 312 h, evaluated after 13 days; for pest or weed control at 15.625 g/ha: 15.625 g ai/ha; for pest or weed control at 15.625 g/ha / pest or weed control at 250 g/ha: read-out: Pigweed, Redroot damage rating (100=total damage to plant; 0=no damage to plant); for pest or weed control at 62.5 g/ha: 62.5 g ai/ha, 100=total damage to plant, 0=no damage to plant, read-out: Pigweed, Redroot damage rating; for pest or weed control at 250 g/ha: 250 g ai/ha
Outline: as §2

[9] = tested on: giant foxtail (Setaria faberi); experiment: Test G Pre-Emergence Protocol; conditions: Setaria faberi, pre-emergence, 312 h, evaluated after 13 days; for pest or weed control at 15.625 g/ha: 15.625 g ai/ha; for pest or weed control at 15.625 g/ha / pest or weed control at 250 g/ha: read-out: Foxtail, Giant damage rating (100=total damage to plant; 0=no damage to plant); for pest or weed control at 62.5 g/ha: 62.5 g ai/ha, 100=total damage to plant, 0=no damage to plant, read-out: Foxtail, Giant damage rating; for pest or weed control at 250 g/ha: 250 g ai/ha
Outline: as §2

[10] = tested on: velvetleaf (Abutilon theophrasti); experiment: Test G Pre-Emergence Protocol; conditions: Abutilon theophrasti, pre-emergence, 312 h, evaluated after 13 days; for pest or weed control at 15.625 g/ha: 15.625 g ai/ha; for pest or weed control at 15.625 g/ha / pest or weed control at 250 g/ha: read-out: Velvetleaf damage rating (100=total damage to plant; 0=no damage to plant); for pest or weed control at 62.5 g/ha: 62.5 g ai/ha, 100=total damage to plant, 0=no damage to plant, read-out: Velvetleaf damage rating; for pest or weed control at 250 g/ha: 250 g ai/ha
Outline: as §2

[11] = tested on: barnyardgrass (Echinochloa crus-galli); experiment: Test G Pre-Emergence Protocol; conditions: Echinochloa crus-galli, pre-emergence, 312 h, evaluated after 13 days; for pest or weed control at 15.625 g/ha: 15.625 g ai/ha; for pest or weed control at 15.625 g/ha / pest or weed control at 250 g/ha: read-out: Barnyardgrass damage rating (100=total damage to plant; 0=no damage to plant); for pest or weed control at 62.5 g/ha: 62.5 g ai/ha, 100=total damage to plant, 0=no damage to plant, read-out: Barnyardgrass damage rating; for pest or weed control at 250 g/ha: 250 g ai/ha
Outline: as §2

[12] = tested on: corn (Zea mays); experiment: Test G Pre-Emergence Protocol; conditions: Zea mays, pre-emergence, 312 h, evaluated after 13 days; for plant injury at 15.625 g/ha: 15.625 g ai/ha; for plant injury at 15.625 g/ha / plant injury at 250 g/ha: read-out: Corn damage rating (100=total damage to plant; 0=no damage to plant); for plant injury at 62.5 g/ha: 62.5 g ai/ha, 100=total damage to plant, 0=no damage to plant, read-out: Corn damage rating; for plant injury at 250 g/ha: 250 g ai/ha
Outline: as §2

Row | Compound | pest or weed control at 15.625 g/ha [1] [%] | pest or weed control at 62.5 g/ha [1] [%] | pest or weed control at 250 g/ha [1] [%] | pest or weed control at 15.625 g/ha [2] [%] | pest or weed control at 62.5 g/ha [2] [%] | pest or weed control at 250 g/ha [2] [%] | pest or weed control at 15.625 g/ha [3] [%] | pest or weed control at 62.5 g/ha [3] [%] | pest or weed control at 250 g/ha [3] [%] | pest or weed control at 15.625 g/ha [4] [%] | pest or weed control at 62.5 g/ha [4] [%] | pest or weed control at 250 g/ha [4] [%] | pest or weed control at 15.625 g/ha [5] [%] | pest or weed control at 62.5 g/ha [5] [%] | pest or weed control at 250 g/ha [5] [%] | plant injury at 15.625 g/ha [6] [%] | plant injury at 62.5 g/ha [6] [%] | plant injury at 250 g/ha [6] [%] | pest or weed control at 15.625 g/ha [7] [%] | pest or weed control at 62.5 g/ha [7] [%] | other results
1 | CN1C[C@H](c2cccc(C(F)(F)F)c2)[C@@H](C(=O)Nc2cnccc2[S+](C)[O-])C1=O (mixture of isomers) [Compound 1752] | 0 | 0 | 0 | 0 | 0 | 0 | 0 | 0 | 0 | 0 | 0 | 0 | 0 | 0 | 0 | 0 | 0 | 0 | 0 | 0 | pest or weed control at 250 g/ha [7]: 0%; pest or weed control at 15.625 g/ha [8]: 0%; pest or weed control at 62.5 g/ha [8]: 0%; pest or weed control at 250 g/ha [8]: 0%; pest or weed control at 15.625 g/ha [9]: 0%; pest or weed control at 62.5 g/ha [9]: 0%; pest or weed control at 250 g/ha [9]: 20%; pest or weed control at 15.625 g/ha [10]: 0%; pest or weed control at 62.5 g/ha [10]: 0%; pest or weed control at 250 g/ha [10]: 0%; pest or weed control at 15.625 g/ha [11]: 0%; pest or weed control at 62.5 g/ha [11]: 0%; pest or weed control at 250 g/ha [11]: 20%; plant injury at 15.625 g/ha [12]: 0%; plant injury at 62.5 g/ha [12]: 0%; plant injury at 250 g/ha [12]: 0%
2 | CN1C[C@H](c2ccc(C(F)(F)F)cc2)[C@@H](C(=O)Nc2cccnc2[S+](C)[O-])C1=O (mixture of isomers) [Compound 1788] | 0 | 0 | 40 | 0 | 10 | 20 | 0 | 0 | 0 | 0 | 10 | 20 | 0 | 0 | 0 | 0 | 10 | 10 | 0 | 0 | pest or weed control at 250 g/ha [7]: 0%; pest or weed control at 15.625 g/ha [8]: 0%; pest or weed control at 62.5 g/ha [8]: 0%; pest or weed control at 250 g/ha [8]: 0%; pest or weed control at 15.625 g/ha [9]: 0%; pest or weed control at 62.5 g/ha [9]: 0%; pest or weed control at 250 g/ha [9]: 0%; pest or weed control at 15.625 g/ha [10]: 0%; pest or weed control at 62.5 g/ha [10]: 0%; pest or weed control at 250 g/ha [10]: 0%; pest or weed control at 15.625 g/ha [11]: 0%; pest or weed control at 62.5 g/ha [11]: 0%; pest or weed control at 250 g/ha [11]: 20%; plant injury at 15.625 g/ha [12]: 0%; plant injury at 62.5 g/ha [12]: 0%; plant injury at 250 g/ha [12]: 0%
3 | CN1C[C@H](c2ccc(C(F)(F)F)cc2)[C@@H](C(=O)Nc2cccc(Cl)c2S(C)(=O)=O)C1=O (racemic) [Compound 1661] | 0 | 0 | 0 | 0 | 20 | 40 | 0 | 60 | 60 | 0 | 0 | 10 | 0 | 20 | 10 | 0 | 0 | 0 | 0 | 0 | pest or weed control at 250 g/ha [7]: 10%; pest or weed control at 15.625 g/ha [8]: 0%; pest or weed control at 62.5 g/ha [8]: 0%; pest or weed control at 250 g/ha [8]: 20%; pest or weed control at 15.625 g/ha [9]: 0%; pest or weed control at 62.5 g/ha [9]: 50%; pest or weed control at 250 g/ha [9]: 80%; pest or weed control at 15.625 g/ha [10]: 0%; pest or weed control at 62.5 g/ha [10]: 0%; pest or weed control at 250 g/ha [10]: 0%; pest or weed control at 15.625 g/ha [11]: 0%; pest or weed control at 62.5 g/ha [11]: 0%; pest or weed control at 250 g/ha [11]: 0%; plant injury at 15.625 g/ha [12]: 0%; plant injury at 62.5 g/ha [12]: 0%; plant injury at 250 g/ha [12]: 10%
